Data as given in PubChem BioAssay (NCI).
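Exposure lasted 48 hours, with cells grown in 96-well plates and compounds tested at five concentrations. TGI denotes the concentration required for complete inhibition of growth.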

How the values were obtained:
Experiment in all cases: inhibition of tumour cell growth, NCI panel, 48 h
NCI-H23 lung = system: NCI-H23 lung
HCT-15 colon = system: HCT-15 colon
LOX IMVI melanoma = system: LOX IMVI melanoma
786-0 renal = system: 786-0 renal
SR leukemia = system: SR leukemia
K-562 leukemia = system: K-562 leukemia
PC-3 prostate = system: PC-3 prostate
UO-31 renal = system: UO-31 renal
NCI-H522 lung = system: NCI-H522 lung
OVCAR-8 ovarian = system: OVCAR-8 ovarian
SNB-19 CNS = system: SNB-19 CNS
NCI/ADR-RES ovarian = system: NCI/ADR-RES ovarian
MCF7 breast = system: MCF7 breast
CCRF-CEM leukemia = system: CCRF-CEM leukemia
RXF 393 renal = system: RXF 393 renal
A498 renal = system: A498 renal
MDA-MB-435 = system: MDA-MB-435
MDA-N = system: MDA-N
M14 melanoma = system: M14 melanoma
OVCAR-3 ovarian = system: OVCAR-3 ovarian
NCI-H460 lung = system: NCI-H460 lung
MALME-3M melanoma = system: MALME-3M melanoma
SF-539 CNS = system: SF-539 CNS
HT29 colon = system: HT29 colon
NCI-H226 lung = system: NCI-H226 lung
SW-620 colon = system: SW-620 colon
HOP-62 NSCLC = system: HOP-62 NSCLC
TK-10 renal = system: TK-10 renal
HS 578T breast = system: HS 578T breast
RPMI-8226 leukemia = system: RPMI-8226 leukemia
HCT-116 colon = system: HCT-116 colon
SNB-75 CNS = system: SNB-75 CNS
SK-MEL-28 melanoma = system: SK-MEL-28 melanoma
HCC-2998 colon = system: HCC-2998 colon
KM12 colon = system: KM12 colon
IGROV1 ovarian = system: IGROV1 ovarian
SK-MEL-2 melanoma = system: SK-MEL-2 melanoma
A549 NSCLC = system: A549 NSCLC
CAKI-1 renal = system: CAKI-1 renal
OVCAR-5 ovarian = system: OVCAR-5 ovarian
SN12C renal = system: SN12C renal
MOLT-4 leukemia = system: MOLT-4 leukemia
EKVX NSCLC = system: EKVX NSCLC
HL-60(TB) leukemia = system: HL-60(TB) leukemia
DU-145 prostate = system: DU-145 prostate
U251 CNS = system: U251 CNS
UACC-257 melanoma = system: UACC-257 melanoma
COLO 205 colon = system: COLO 205 colon
HOP-92 NSCLC = system: HOP-92 NSCLC
T-47D breast = system: T-47D breast
UACC-62 melanoma = system: UACC-62 melanoma
SK-OV-3 ovarian = system: SK-OV-3 ovarian
SF-295 CNS = system: SF-295 CNS
SF-268 CNS = system: SF-268 CNS
SK-MEL-5 melanoma = system: SK-MEL-5 melanoma
OVCAR-4 ovarian = system: OVCAR-4 ovarian
ACHN renal = system: ACHN renal
MDA-MB-231 breast = system: MDA-MB-231 breast

Measured: TGI

CCOC(=O)OC1(c2ccccc2)CCN(C)CC1
> 100 µM: all assays above
